{"source": "patent US4328235A", "about": "“Suppressing pain with benzothiazol-2(3H)-ones” (Boehringer Ingelheim GmbH, priority 1979, dated 1982)", "key": {"[1]": {"test_system": "Pain of Inflammation on the Back Paw of the Rat", "experiment": "Randall-Selitto test (pain of inflammation, yeast oedema, back paw of the rat)", "assay_type": "in vivo", "details": "po, 0.75 h, read-out: ED50 (dose which increased the pain threshold by 50%)", "method": "The activity against the pain caused by inflammation was tested according to the method of RANDALL-SELITTO [Arch. Int. […] After a further 45 minutes the pain threshold was determined in the animals treated with the test compound and in the control animals treated only with the vehicle."}, "methemoglobin": {"test_system": "methemoglobin", "experiment": "Determination of the level of methemoglobin in the cat", "assay_type": "in vivo", "details": "oesophageal tube", "method": "The test substances were administered to cats of both sexes having an average body weight of 2.5 kg, as a trituration in 1% methyl cellulose using an oesophageal tube (2 ml/kg; the oesophageal tube was cleared in situ by aqua bidestillata). After a single application blood-tests were taken by heart-punctuation at different times, that is, at 3 hours, 5 hours, 24 hours, and 48 hours after administration. The photometric registration of the spectrum of hemoglobin as well as the determination of the content of hemoglobin in comparison to controls were effected according to the method of LEMBERG and LEGGE [Hematin Compounds and Bile Pigments, Interscience Publishers, New York (1949)]."}, "[2]": {"test_system": "body temperature of Chbb:THOM-rats", "experiment": "Antipyretic activity (rectal body temperature of rats)", "assay_type": "in vivo, rat", "details": "for ED (-1.5 degC): Rattus norvegicus, po, read-out: ED-1.5° C. (dose which decreases the body temperature by 1.5° C.)", "method": "The test substances were administered as a trituration in a 1% methyl cellulose in portions of 1.0 ml/100 g of animal using an oesophageal tube.\nFrom the values for the average maximum decline of temperature, which were gained after the administration of the different doses of the test substances, and after a linear regression analysis according to LINDER, an ED-1.5° C. was calculated with the confidence limits according to FIELLER as the dose which decreases the body temperature by 1.5° C."}, "[3]": {"test_system": "Sensitivity of the Mouse in the Hot Plate Test", "experiment": "Hot plate test (sensitivity of the mouse, increase of reaction time)", "assay_type": "in vivo", "details": "po, read-out: ED100 (dose which increased the time of reaction by 100%)", "method": "The test substances were administered as trituration in 1% methyl cellulose (0.1 ml/10 g of mouse) by means of an oesophageal tube.\nBefore treatment with the test substances, the animals were twice put on the hot plate at an interval of 30 minutes, whereby their individual times of reaction were measured. After treatment with a test substance, the times of reaction of the animals were again measured in an interval of 30 minutes."}, "Acute toxicity in mice": {"experiment": "Acute toxicity in mice", "details": "mouse, in vivo, po; Chbb-NMRI (SPF)-mice of both sexes, oesophageal tube, deaths within 14 days", "method": "The acute toxicity was determined in Chbb-NMRI (SPF)-mice of both sexes, having an average body weight of 20 grams. The test compounds were administered as a trituration in 1% methyl cellulose (0.5 ml/10 g of animal) by means of an oesophageal tube. The calculation of the LD50 values was effected according to the method of LITCHFIELD and WILCOXON [J. Pharmacol. Exp. Ther., 96. 99 (1949)], based on the percentage of animals which died within 14 days after administration of different doses."}, "[4]": {"details": "literature: W. Nimmich, Pharmazie, 19, (4), 281 (1964); cited from earlier work"}, "[5]": {"details": "male Chbb:THOM-rats, oesophageal tube, 45 minutes after administration"}, "[6]": {"details": "50 mg/kg, 3 hours after administration"}, "[7]": {"details": "50 mg/kg, 5 hours after administration"}, "[8]": {"details": "50 mg/kg, 24 hours after administration"}, "[9]": {"details": "100 mg/kg, 3 hours after administration"}, "[10]": {"details": "100 mg/kg, 5 hours after administration"}, "[11]": {"details": "100 mg/kg, 24 hours after administration"}, "[12]": {"details": "200 mg/kg, 3 hours after administration"}, "[13]": {"details": "200 mg/kg, 5 hours after administration"}, "[14]": {"details": "200 mg/kg, 24 hours after administration"}, "[15]": {"details": "Chbb:THOM-rats, oesophageal tube"}, "[16]": {"details": "male Chbb:NMRI (SPF)-mice, oesophageal tube, hot plate 52° C."}}, "note": "Where two headings read alike, the source gives them in different places."}
{"smiles": "CCOc1ccc2[nH]c(=O)sc2c1", "note": "[A, 6-Ethoxy-benzothiazol-2(3H)-one]", "values": [{"measurement": "ED50", "setting": "[1]; [5]", "value": 64.3, "unit": "mg/kg"}, {"measurement": "Average value of methemoglobin", "setting": "methemoglobin; [6]", "value": "0.3 % of total hemoglobin"}, {"measurement": "Average value of methemoglobin", "setting": "methemoglobin; [7]", "value": "0.5 % of total hemoglobin"}, {"measurement": "Average value of methemoglobin", "setting": "methemoglobin; [8]", "value": "1.1 % of total hemoglobin"}, {"measurement": "Average value of methemoglobin", "setting": "methemoglobin; [9]", "value": "0.4 % of total hemoglobin"}, {"measurement": "Average value of methemoglobin", "setting": "methemoglobin; [10]", "value": "0.1 % of total hemoglobin"}, {"measurement": "Average value of methemoglobin", "setting": "methemoglobin; [11]", "value": "0.3 % of total hemoglobin"}, {"measurement": "Average value of methemoglobin", "setting": "methemoglobin; [12]", "value": "1.0 % of total hemoglobin"}, {"measurement": "Average value of methemoglobin", "setting": "methemoglobin; [13]", "value": "0.4 % of total hemoglobin"}, {"measurement": "Average value of methemoglobin", "setting": "methemoglobin; [14]", "value": "0.5 % of total hemoglobin"}, {"measurement": "ED (-1.5 degC)", "setting": "[2]; [15]", "value": 84.3, "unit": "mg/kg"}, {"measurement": "ED100", "setting": "[3]; [16]", "value": 154, "unit": "mg/kg"}, {"measurement": "LD50 at 336 h", "setting": "Acute toxicity in mice", "value": 1200, "unit": "mg/kg"}]}
{"smiles": "COc1ccc2nc(O)sc2c1", "note": "[B, 6-Methoxy-benzothiazol-2(3H)-one]", "values": [{"measurement": "ED50", "setting": "[1]; [5]", "value": 142, "unit": "mg/kg"}, {"measurement": "Average value of methemoglobin", "setting": "methemoglobin; [9]", "value": "4.6 % of total hemoglobin"}, {"measurement": "Average value of methemoglobin", "setting": "methemoglobin; [10]", "value": "3.5 % of total hemoglobin"}, {"measurement": "Average value of methemoglobin", "setting": "methemoglobin; [11]", "value": "0.0 % of total hemoglobin"}, {"measurement": "Average value of methemoglobin", "setting": "methemoglobin; [12]", "value": "8.1 % of total hemoglobin"}, {"measurement": "Average value of methemoglobin", "setting": "methemoglobin; [13]", "value": "11.7 % of total hemoglobin"}, {"measurement": "Average value of methemoglobin", "setting": "methemoglobin; [14]", "value": "0.0 % of total hemoglobin"}, {"measurement": "ED (-1.5 degC)", "setting": "[2]; [15]", "value": 66.8, "unit": "mg/kg"}, {"measurement": "ED100", "setting": "[3]; [16]", "value": 122, "unit": "mg/kg"}, {"measurement": "LD50 at 336 h", "setting": "Acute toxicity in mice", "value": 1280, "unit": "mg/kg"}]}
{"smiles": "Cc1ccc2[nH]c(=O)sc2c1", "note": "[C, 6-Methyl-benzothiazol-2(3H)-one]", "values": [{"measurement": "ED50", "setting": "[1]; [5]", "value": 54.4, "unit": "mg/kg"}, {"measurement": "Average value of methemoglobin", "setting": "methemoglobin; [9]", "value": "4.0 % of total hemoglobin"}, {"measurement": "Average value of methemoglobin", "setting": "methemoglobin; [10]", "value": "2.4 % of total hemoglobin"}, {"measurement": "Average value of methemoglobin", "setting": "methemoglobin; [11]", "value": "0.1 % of total hemoglobin"}, {"measurement": "Average value of methemoglobin", "setting": "methemoglobin; [12]", "value": "13.6 % of total hemoglobin"}, {"measurement": "Average value of methemoglobin", "setting": "methemoglobin; [13]", "value": "13.7 % of total hemoglobin"}, {"measurement": "Average value of methemoglobin", "setting": "methemoglobin; [14]", "value": "0.4 % of total hemoglobin"}, {"measurement": "ED (-1.5 degC)", "setting": "[2]; [15]", "value": 30.9, "unit": "mg/kg"}, {"measurement": "ED100", "setting": "[3]; [16]", "value": 144, "unit": "mg/kg"}, {"measurement": "LD50 at 336 h", "setting": "Acute toxicity in mice", "value": 2160, "unit": "mg/kg"}]}
{"smiles": "CCOc1ccc(NC(C)=O)cc1", "note": "[D, Phenacetin, reference compound]", "values": [{"measurement": "ED50", "setting": "[1]", "value": 274, "unit": "mg/kg"}, {"measurement": "Average value of methemoglobin", "setting": "methemoglobin; 25 mg/kg, 3 hours after administration", "value": "1.9 % of total hemoglobin"}, {"measurement": "Average value of methemoglobin", "setting": "methemoglobin; 25 mg/kg, 5 hours after administration", "value": "0.4 % of total hemoglobin"}, {"measurement": "Average value of methemoglobin", "setting": "methemoglobin; [6]", "value": "19.6 % of total hemoglobin"}, {"measurement": "Average value of methemoglobin", "setting": "methemoglobin; [7]", "value": "9.8 % of total hemoglobin"}, {"measurement": "Average value of methemoglobin", "setting": "methemoglobin; [8]", "value": "0.5 % of total hemoglobin"}, {"measurement": "Average value of methemoglobin", "setting": "methemoglobin; [9]", "value": "32.0 % of total hemoglobin"}, {"measurement": "Average value of methemoglobin", "setting": "methemoglobin; [10]", "value": "35.8 % of total hemoglobin"}, {"measurement": "Average value of methemoglobin", "setting": "methemoglobin; [11]", "value": "0.5 % of total hemoglobin"}, {"measurement": "Average value of methemoglobin", "setting": "methemoglobin; [12]", "value": "36.0 % of total hemoglobin"}, {"measurement": "Average value of methemoglobin", "setting": "methemoglobin; [13]", "value": "46.6 % of total hemoglobin"}, {"measurement": "Average value of methemoglobin", "setting": "methemoglobin; [14]", "value": "15.4 % of total hemoglobin"}, {"measurement": "Average value of methemoglobin", "setting": "methemoglobin; 200 mg/kg, 48 hours after administration", "value": "1.1 % of total hemoglobin"}, {"measurement": "ED (-1.5 degC)", "setting": "[2]", "value": 34.4, "unit": "mg/kg"}, {"measurement": "Antipyretic activity (in words)", "setting": "[2]; rat, in vivo", "value": "an antipyretic activity"}, {"measurement": "ED100", "setting": "[3]", "value": 328, "unit": "mg/kg"}, {"measurement": "LD50 at 336 h", "setting": "Acute toxicity in mice", "value": 1460, "unit": "mg/kg"}]}
{"smiles": "O=c1[nH]c2ccccc2s1", "note": "[Example 2, Benzothiazol-2(3H)-one]", "values": [{"measurement": "Antimicrobial and fungistatic activity", "setting": "[4]", "value": "antimicrobial and fungistatic acitivity"}]}
